The record followed here is PMC12040169 (PLOS Biology, 2025).

This series in a line: in vitro. Conditions: human, hela cells, % viability.

Structures are written as SMILES.

For `Cc1cc(COc2ccnc(N3CCCN(CCCO)CC3)n2)no1` [CBK083917], the viability at 28.5 h, 10 µM amounted to 98.4%. In the case of `CSCCN1CCCN(c2nccc(OCc3ccc(Cl)c(Cl)c3)n2)CC1` [CBK083960] it was 70.5%. As for `Clc1ccc(COc2ccnc(N3CCCN(CC4CC4)CC3)n2)cc1Cl` [CBK083963], the figure is 81.3%. In the case of `c1ccc2c(c1)OCC(COc1ccnc(N3CCCN(CCN4CCOCC4)CC3)n1)O2` (stereo not drawn) [CBK083976] it was 116%; in that of `CSCCN1CCCN(c2nccc(OCC3COc4ccccc4O3)n2)CC1` (stereo not drawn) [CBK083978], 91.1%; in that of `c1ccc(OCCN2CCCN(c3nccc(OCC4COc5ccccc5O4)n3)CC2)cc1` (stereo not drawn) [CBK083980], 94%. For `c1ccc2c(c1)OCC(COc1ccnc(N3CCCN(CC4CCCCC4)CC3)n1)O2` (stereo not drawn) [CBK083982], the viability at 28.5 h, 10 µM amounted to 115%. For `COc1ccnc(N2CCCN(CCc3ccc(OC)c(OC)c3)CC2)n1` [CBK084002], the viability at 28.5 h, 10 µM was 85%. With `CS(=O)(=O)N1CC2(CCN(Cc3ccccc3)CC2)c2ccccc21` [CBK084003], the viability at 28.5 h, 10 µM amounted to 89.9%. In the case of `CS(=O)(=O)N1CC2(CCN(Cc3cccnc3)CC2)c2ccccc21` [CBK084006] it was 98.1%. As for `CS(=O)(=O)N1CC2(CCN(CCCC#N)CC2)c2ccccc21` [CBK084014], the figure is 97.9%; as for `CS(=O)(=O)N1CC2(CCN(CCc3ccccc3)CC2)c2ccccc21` [CBK084015], 88.3%; as for `Cc1cc(COc2ccnc(N3CCCN(CC(N)=O)CC3)n2)no1` [CBK084036], 85.9%. Regarding `NC(=O)CN1CCCN(c2nccc(OCC3COc4ccccc4O3)n2)CC1` (stereo not drawn) [CBK084041], the viability at 28.5 h, 10 µM came out at 115%. As for `CCN(CC)C(=O)CN1CCCN(c2nccc(OCCN3CCOCC3)n2)CC1` [CBK084094], the figure is 99.5%; as for `CS(=O)(=O)N1CC2(CCN(CCc3ccc(F)cc3)CC2)c2ccccc21` [CBK084103], 93.3%; as for `COc1ccnc(N2CCCN(CCCC#N)CC2)n1` [CBK084124], 88.4%.

Turning to `COc1ccc(Oc2nccc(N3CCCN(Cc4ccc(C(F)(F)F)cc4)CC3)n2)cc1OC` [CBK084152], the viability at 28.5 h, 10 µM came to 98.2%.

On to `COc1ccc(Oc2nccc(N3CCCN(CCCO)CC3)n2)cc1OC` [CBK084158], for which the viability at 28.5 h, 10 µM was determined as 93.5%.

For the compound `Cc1cc(COc2nccnc2N2CCN(Cc3ccc(C(C)C)cc3)CC2)no1` [CBK084186], the viability at 28.5 h, 10 µM was determined as 94.9%. In the case of `Cc1cc(COc2nccnc2N2CCN(Cc3ccc([N+](=O)[O-])cc3)CC2)no1` [CBK084189], the viability at 28.5 h, 10 µM stood at 92%.

Consider `Cc1cc(COc2nccnc2N2CCN(CCCC#N)CC2)no1` [CBK084198], for which the viability at 28.5 h, 10 µM was 93.5%. With `Cc1cc(COc2nccnc2N2CCN(CC3CCCCC3)CC2)no1` [CBK084205], the viability at 28.5 h, 10 µM worked out at 94.2%. With `COc1ccc(CN2CCN(c3nccnc3OC)CC2)cc1` [CBK084216], the viability at 28.5 h, 10 µM came out at 89.6%. In the case of `COc1nccnc1N1CCN(CC(N)=O)CC1` [CBK084219] it was 98.4%; in that of `CCN(CC)C(=O)CN1CCN(c2nccnc2OC)CC1` [CBK084221], 83.9%; in that of `COc1nccnc1N1CCN(CCCn2c(=O)[nH]c3ccccc32)CC1` [CBK084226], 95.8%. In the case of `COc1nccnc1OC1CCN(Cc2ccc(C(F)(F)F)cc2)CC1` [CBK084243] it was 79.3%; in that of `COc1nccnc1OC1CCN(CC(N)=O)CC1` [CBK084248], 86.7%. In the case of `COc1nccnc1OC1CCN(CCCO)CC1` [CBK084254] it was 97.6%; in that of `COc1nccnc1OC1CCN(CCc2ccccc2)CC1` [CBK084258], 95%; in that of `COc1nccnc1OC1CCN(CCc2ccc(F)cc2)CC1` [CBK084259], 102%.

For `COc1nccnc1OC1CCN(CCc2ccc3ccccc3c2)CC1` [CBK084264], the viability at 28.5 h, 10 µM was 107%. As for `CS(=O)(=O)Nc1nccnc1N1CCN(Cc2ccc(Cl)c(Cl)c2)CC1` [CBK084267], the figure is 98.7%; as for `CS(=O)(=O)Nc1nccnc1N1CCN(Cc2ccc([N+](=O)[O-])cc2)CC1` [CBK084274], 103%. As for `CS(=O)(=O)Nc1nccnc1OC1CCN(CCCO)CC1` [CBK084275], the figure is 90.9%; as for `CS(=O)(=O)Nc1nccnc1OC1CCN(CCCC#N)CC1` [CBK084276], 99.4%. In the case of `CS(=O)(=O)Nc1nccnc1OC1CCN(CCCn2c(=O)[nH]c3ccccc32)CC1` [CBK084277] it was 91.8%.

Turning to `CS(=O)(=O)Nc1nccnc1OC1CCN(CCc2ccccc2)CC1` [CBK084279], the viability at 28.5 h, 10 µM worked out at 98.3%. Consider `CS(=O)(=O)Nc1nccnc1OC1CCN(CCc2c[nH]c3ccccc23)CC1` [CBK084282], for which the viability at 28.5 h, 10 µM was 119%. As for `O=C1CCC(=O)N1CCOc1nccnc1N1CCN(Cc2ccc(Cl)c(Cl)c2)CC1` [CBK084287], the figure is 92.9%; as for `O=C1CCC(=O)N1CCOc1nccnc1N1CCN(Cc2ccc([N+](=O)[O-])cc2)CC1` [CBK084294], 93%; as for `CCN(CC)C(=O)CN1CCN(c2nccnc2OCCN2C(=O)CCC2=O)CC1` [CBK084297], 102%. In the case of `O=C1CCC(=O)N1CCOc1nccnc1N1CCN(CCCn2c(=O)[nH]c3ccccc32)CC1` [CBK084300] it was 110%; in that of `CSCCN1CCN(c2nccnc2OCCN2C(=O)CCC2=O)CC1` [CBK084301], 105%.

Consider `Nc1ccc(-c2ccc(OC(F)(F)F)cc2)c2ccccc12` [CBK084327], for which the viability at 28.5 h, 10 µM amounted to 84.6%. Turning to `O=C1CCC(=O)N1CCOc1nccnc1OC1CCN(Cc2ccc(Cl)c(Cl)c2)CC1` [CBK084335], the viability at 28.5 h, 10 µM came out at 96.2%. `O=C1CCC(=O)N1CCOc1nccnc1OC1CCN(Cc2ccccc2F)CC1` [CBK084337]: the viability at 28.5 h, 10 µM worked out at 96.4%.

Take `O=C1CCC(=O)N1CCOc1nccnc1OC1CCN(Cc2ccc(Cl)cc2)CC1` [CBK084338]: the viability at 28.5 h, 10 µM was determined as 108%. With `O=C1CCC(=O)N1CCOc1nccnc1OC1CCN(Cc2ccc([N+](=O)[O-])cc2)CC1` [CBK084343], the viability at 28.5 h, 10 µM worked out at 95.7%. As for `O=C1CCC(=O)N1CCOc1nccnc1OC1CCN(Cc2ccccc2-c2ccccc2)CC1` [CBK084344], the figure is 110%; as for `O=C1CCC(=O)N1CCOc1nccnc1OC1CCN(CCOc2ccccc2)CC1` [CBK084354], 101%; as for `COc1ccc(CCN2CCC(Oc3nccnc3OCCN3C(=O)CCC3=O)CC2)cc1OC` [CBK084359], 109%. As for `Clc1ccc(CN2CCC(Oc3cncc(OCC4COc5ccccc5O4)n3)C2)cc1` (stereo not drawn) [CBK084364], the figure is 94.7%. As for `c1cncc(CN2CCC(Oc3cncc(OCC4COc5ccccc5O4)n3)C2)c1` (stereo not drawn) [CBK084365], the figure is 96.5%; as for `NC(=O)CN1CCC(Oc2cncc(OCC3COc4ccccc4O3)n2)C1` (stereo not drawn) [CBK084372], 98.2%.

On to `Cc1cccc(C)c1NC(=O)CN1CCC(Oc2cncc(OCC3COc4ccccc4O3)n2)C1` (stereo not drawn) [CBK084373], for which the viability at 28.5 h, 10 µM came to 98.5%. As for `CCN(CC)C(=O)CN1CCC(Oc2cncc(OCC3COc4ccccc4O3)n2)C1` (stereo not drawn) [CBK084374], the figure is 102%; as for `CCOC(=O)CN1CCC(Oc2cncc(OCC3COc4ccccc4O3)n2)C1` (stereo not drawn) [CBK084375], 92.6%. `O=c1[nH]c2ccccc2n1CCCN1CCC(Oc2cncc(OCC3COc4ccccc4O3)n2)C1` (stereo not drawn) [CBK084380]: the viability at 28.5 h, 10 µM was found to be 94.4%. In the case of `CSCCN1CCC(Oc2cncc(OCC3COc4ccccc4O3)n2)C1` (stereo not drawn) [CBK084381] it was 105%; in that of `c1ccc(CCN2CCC(Oc3cncc(OCC4COc5ccccc5O4)n3)C2)cc1` (stereo not drawn) [CBK084382], 93%; in that of `c1ccc2c(c1)OCC(COc1cncc(OC3CCN(CC4CCCCC4)C3)n1)O2` (stereo not drawn) [CBK084387], 109%. As for `COc1ccc(CCN2CCC(Oc3cncc(OCC4COc5ccccc5O4)n3)C2)cc1OC` (stereo not drawn) [CBK084389], the figure is 112%.

For the compound `COc1ccc(Oc2cncc(OC3CCN(Cc4ccc(Cl)c(Cl)c4)C3)n2)cc1OC` (stereo not drawn) [CBK084391], the viability at 28.5 h, 10 µM came to 115%. In the case of `COc1ccc(Oc2cncc(OC3CCN(CC(N)=O)C3)n2)cc1OC` (stereo not drawn) [CBK084402] it was 93.8%; in that of `COc1ccc(Oc2cncc(OC3CCN(CC(=O)Nc4c(C)cccc4C)C3)n2)cc1OC` (stereo not drawn) [CBK084403], 101%. In the case of `CCN(CC)C(=O)CN1CCC(Oc2cncc(Oc3ccc(OC)c(OC)c3)n2)C1` (stereo not drawn) [CBK084404] it was 93.9%; in that of `COc1ccc(Oc2cncc(OC3CCN(CCCn4c(=O)[nH]c5ccccc54)C3)n2)cc1OC` (stereo not drawn) [CBK084406], 97.6%; in that of `COc1ccc(Oc2cncc(OC3CCN(CCc4ccc(F)cc4)C3)n2)cc1OC` (stereo not drawn) [CBK084409], 94.1%. As to `COc1ccc(Oc2cncc(OC3CCN(CC4CC4)C3)n2)cc1OC` (stereo not drawn) [CBK084412], the viability at 28.5 h, 10 µM was 89.3%. As for `O=[N+]([O-])c1ccc(CN2CCC(Oc3cncc(OCc4ccc(Cl)c(Cl)c4)n3)C2)cc1` (stereo not drawn) [CBK084426], the figure is 97.1%. In the case of `NC(=O)CN1CCC(Oc2cncc(OCc3ccc(Cl)c(Cl)c3)n2)C1` (stereo not drawn) [CBK084429] it was 101%; in that of `Clc1ccc(COc2cncc(OC3CCN(CC4CC4)C3)n2)cc1Cl` (stereo not drawn) [CBK084443], 86.5%.

Regarding `Clc1ccc(CN2CCC(Oc3cncc(OCc4cccnc4)n3)C2)cc1Cl` (stereo not drawn) [CBK084448], the viability at 28.5 h, 10 µM stood at 84%. In the case of `NC(=O)CN1CCC(Oc2cncc(OCc3cccnc3)n2)C1` (stereo not drawn) [CBK084459] it was 98%. In the case of `Cc1cccc(C)c1NC(=O)CN1CCC(Oc2cncc(OCc3cccnc3)n2)C1` (stereo not drawn) [CBK084460] it was 87.6%; in that of `CCN(CC)C(=O)CN1CCC(Oc2cncc(OCc3cccnc3)n2)C1` (stereo not drawn) [CBK084461], 92.4%.

The term viability denotes a read-out of living cells in per cent, often relative to untreated cells.
